PMC11414674, “Cryo-EM structure of ACE2-SIT1 in complex with tiagabine” (The Journal of Biological Chemistry, 2024)

Key:
SIT1 (SLC6A20) [1] = target: T1, SIT1 (SLC6A20) (Homo sapiens, UniProt Q9NP91); assay: […]proline uptake in Xenopus oocytes, inhibitor at […]; type: cell-based; parameters: with ACE2; details: read-out: % inhibition at 100 μM
SIT1 (SLC6A20) [2] = target: T1, SIT1 (SLC6A20); assay: cryo-EM structure at […] Å; IC50 from […]proline uptake in Xenopus oocytes expressing SIT1-ACE2 ([…] proline); type: cell-based; parameters: full-length human SIT1, N-terminal FLAG tag, in complex with full-length ACE2; with ACE2
B0AT2 (SLC6A15) = target: T2, B0AT2 (SLC6A15) (Homo sapiens, UniProt Q9H2J7); assay: labelled leucine uptake in Xenopus oocytes, tiagabine at […]; type: cell-based
T2 sequence (Q9H2J7 1-730): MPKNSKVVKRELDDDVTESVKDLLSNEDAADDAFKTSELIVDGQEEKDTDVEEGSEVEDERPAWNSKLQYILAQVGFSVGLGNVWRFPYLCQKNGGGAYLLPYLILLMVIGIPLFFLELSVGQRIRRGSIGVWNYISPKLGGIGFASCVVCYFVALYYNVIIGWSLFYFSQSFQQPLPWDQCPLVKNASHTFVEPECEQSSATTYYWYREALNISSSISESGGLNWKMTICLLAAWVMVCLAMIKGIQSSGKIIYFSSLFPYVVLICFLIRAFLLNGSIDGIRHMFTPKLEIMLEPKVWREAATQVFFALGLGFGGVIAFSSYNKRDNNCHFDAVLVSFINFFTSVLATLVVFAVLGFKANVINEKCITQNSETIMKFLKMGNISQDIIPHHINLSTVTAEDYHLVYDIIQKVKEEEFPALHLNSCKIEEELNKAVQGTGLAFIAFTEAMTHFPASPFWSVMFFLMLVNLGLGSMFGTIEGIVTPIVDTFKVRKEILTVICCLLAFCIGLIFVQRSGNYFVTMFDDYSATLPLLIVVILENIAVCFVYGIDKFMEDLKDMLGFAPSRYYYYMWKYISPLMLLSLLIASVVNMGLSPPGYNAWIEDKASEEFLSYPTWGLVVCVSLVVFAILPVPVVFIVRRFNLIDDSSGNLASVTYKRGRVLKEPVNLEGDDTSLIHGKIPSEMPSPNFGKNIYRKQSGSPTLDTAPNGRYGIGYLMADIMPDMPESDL

[3] = substrate: O=C(O)[C@@H]1CCCN1; assay: cells, lysate or membranes; details: Na+ and Cl- orthosteric substrate site

T1 sequence (Q9BYF1 18-805 partner, one chain of several): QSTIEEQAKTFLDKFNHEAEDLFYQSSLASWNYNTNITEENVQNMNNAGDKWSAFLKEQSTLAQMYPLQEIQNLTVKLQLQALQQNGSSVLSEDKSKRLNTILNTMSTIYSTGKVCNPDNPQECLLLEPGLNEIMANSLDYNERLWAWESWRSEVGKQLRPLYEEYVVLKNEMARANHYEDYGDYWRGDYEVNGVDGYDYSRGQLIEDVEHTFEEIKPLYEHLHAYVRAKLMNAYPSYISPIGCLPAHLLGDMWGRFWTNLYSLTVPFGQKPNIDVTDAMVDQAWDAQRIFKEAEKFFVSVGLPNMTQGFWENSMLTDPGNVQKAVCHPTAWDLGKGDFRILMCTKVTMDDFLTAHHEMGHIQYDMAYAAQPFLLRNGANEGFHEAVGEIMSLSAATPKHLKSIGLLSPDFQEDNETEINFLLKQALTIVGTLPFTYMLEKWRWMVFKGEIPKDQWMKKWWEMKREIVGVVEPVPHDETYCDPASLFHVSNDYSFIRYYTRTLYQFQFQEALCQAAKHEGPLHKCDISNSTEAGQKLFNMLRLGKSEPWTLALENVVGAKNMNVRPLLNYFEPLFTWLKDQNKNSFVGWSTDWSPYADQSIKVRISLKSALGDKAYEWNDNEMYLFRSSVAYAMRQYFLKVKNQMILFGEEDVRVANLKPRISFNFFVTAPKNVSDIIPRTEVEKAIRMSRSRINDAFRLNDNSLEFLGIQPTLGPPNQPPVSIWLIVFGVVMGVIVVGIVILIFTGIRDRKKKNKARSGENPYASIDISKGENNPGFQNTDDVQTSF

**Q.** Which inhibition at 100 µM (SIT1 (SLC6A20) [1]) does the source give for `O=C(O)C1=CCCN(CCOC(c2ccc(C(F)(F)F)cc2)c2ccc(C(F)(F)F)cc2)C1` [CI966] here?
**A.** The inhibition at 100 µM was 53%.

**Q.** `O=C(O)C1CCCN(CCC=C(c2ccccc2)c2ccccc2)C1` (centres unmarked) [SKF89976A] was tested. Which inhibition at 100 µM (SIT1 (SLC6A20) [1]) did it give?
**A.** Its inhibition at 100 µM is 58%.

**Q.** `Cc1ccsc1C(=CCCN1CCC[C@@H](C(=O)O)C1)c1sccc1C` [tiagabine] was tested. Which IC50 (SIT1 (SLC6A20) [2]) did it give?
**A.** The IC50 was 18 ± 4 µM.

**Q.** What about the “labelled leucine uptake in Xenopus oocytes, tiagabine at 100 μM” value (B0AT2 (SLC6A15)) of the same molecule?
**A.** Its value is “The branched-chain amino acid transporter B^0AT2 (SLC6A15) was similarly sensitive to inhibition by Tiagabine”.

B1: SIT1 (SLC6A20) (Homo sapiens) (protein)
chain: MEKARPLWANSLQFVFACISYAVGLGNVWRFPYLCQMYGGGSFLVPYIIMLIVEGMPLLYLELAVGQRMRQGSIGAWRTISPYLSGVGVASVVVSFFLSMYYNVINAWAFWYLFHSFQDPLPWSVCPLNGNHTGYDEECEKASSTQYFWYRKTLNISPSLQENGGVQWEPALCLLLAWLVVYLCILRGTESTGKVVYFTASLPYCVLIIYLIRGLTLHGATNGLMYMFTPKIEQLANPKAWINAATQIFFSLGLGFGSLIAFASYNEPSNNCQKHAIIVSLINSFTSIFASIVTFSIYGFKATFNYENCLKKVSLLLTNTFDLEDGFLTASNLEQVKGYLASAYPSKYSEMFPQIKNCSLESELDTAVQGTGLAFIVYTEAIKNMEVSQLWSVLYFFMLLMLGIGSMLGNTAAILTPLTDSKIISSHLPKEAISGLVCLVNCAIGMVFTMEAGNYWFDIFNDYAATLSLLLIVLVETIAVCYVYGLRRFESDLKAMTGRAVSWYWKVMWAGVSPLLIVSLFVFYLSDYILTGTLKYQAWDASQGQLVTKDYPAYALAVIGLLVASSTMCIPLAALGTFVQRRLKRGDADPVA
**Q.** Which Km [3] does the source give for B1 here?
**A.** Its Km is 130 µM.
